The values below come from patent US5977373A, “Thiadiazolyl and oxadiazolyl phenyl oxazolidinone antibacterial agents” (Pharmacia & Upjohn Company, priority 1998, dated 1999).

Format in all cases: cell-based
One assay relates to S. pneumoniae UC ® 9912. Put plainly: In vitro minimum inhibitory concentration (MIC) by agar dilution, gram-positive bacteria (Table 1). To be noted: Streptococcus pneumoniae, UC9912. The text has this: (§1) The oxazolidinone antibacterial agents of this invention have useful activity against a variety of microorganisms. The in vitro activity of compounds of this invention can be assessed by standard testing procedures such as the determination of minimum inhibitory concentration (MIC) by agar dilution as described in "Methods for Dilution Antimicrobial Susceptibility Tests for Bacteria That Grow Aerobically" (MFT) published January 1983 by the National Committee for Clinical Laboratory Standards, 771 East Lancaster Avenue, Villanova, Pa. 19084, USA. The activity of selected compounds of this invention against Staphylococcus aureus and Streptococcus pneumoniae are shown in Table 1.

For a further assay, the system named is S. Aureus UC ® 9213. The description is as above. To be noted: Staphylococcus aureus, UC9213.
From the text: as §1

In a further assay the test system is HI 30063. Kind of assay: MIC for a gram negative bacterial strain (Table 2). To be noted: gram negative bacterial strain HI 30063.

Converted amounts (≈) assume the structure as drawn.

On to `CC(=O)NC[C@H]1CN(c2ccc(-c3nnc(CO)s3)c(F)c2)C(=O)O1` [Example 11, (S)-N-[[3-[3-Fluoro-4-(5-hydroxymethyl-1,3,4-thiadiazol-2-yl)phenyl]-2-oxo-5-oxazolidinyl]methyl]acetamide], for which the MIC was under 0.125 µg/mL against S. pneumoniae UC ® 9912, 1 µg/mL (≈ 2.73 µM) against S. Aureus UC ® 9213 and 4 µg/mL (≈ 10.9 µM) against HI 30063.

In the case of `CC(=O)NC[C@H]1CN(c2ccc(-c3nnc(CC#N)s3)c(F)c2)C(=O)O1` [Example 13, (S)-N-[[3-[4-[5-(Cyanomethyl)-1,3,4-thiadiazol-2-yl]-3-fluorophenyl]-2-oxo-5-oxazolidinyl]methyl]acetamide], the results for the MIC in the assay on S. pneumoniae UC ® 9912, in the assay with S. Aureus UC ® 9213 and in the assay on HI 30063 were 0.25 µg/mL (≈ 0.666 µM), 2 µg/mL (≈ 5.33 µM) and 4 µg/mL (≈ 10.7 µM), respectively.

For `CC(=O)NC[C@H]1CN(c2ccc(-c3nnc(CC(N)=O)s3)c(F)c2)C(=O)O1` [Example 14, (S)-5-[4-[5-[(Acetylamino)methyl]-2-oxo-3-oxazolidinyl]-2-fluorophenyl]-1,3,4-thiadiazole-2-acetamide], the results for the MIC against S. pneumoniae UC ® 9912, against S. Aureus UC ® 9213 and against HI 30063 were under 0.125 µg/mL, 4 µg/mL (≈ 10.2 µM) and 4 µg/mL (≈ 10.2 µM), respectively.

Regarding `CC(=O)CCc1nnc(-c2ccc(N3C[C@H](CNC(C)=O)OC3=O)cc2F)s1` [Example 16, (S)-N-[[3-[3-Fluoro-4-[5-(3-oxobutyl)-1,3,4-thiadiazol-2-yl]phenyl]-2-oxo-5-oxazolidinyl]methyl]acetamide], the MIC against S. pneumoniae UC ® 9912 was under 0.125 µg/mL; in the assay on S. Aureus UC ® 9213, 1 µg/mL (≈ 2.46 µM); in the assay on HI 30063, 4 µg/mL (≈ 9.84 µM).

Regarding `CC(=O)NC[C@H]1CN(c2ccc(-c3nnc(CCC#N)s3)c(F)c2)C(=O)O1` [Example 20, (S)-N-[[3-[4-[5-(2-Cyanoethyl)-1,3,4-thiadiazol-2-yl]-3-fluorophenyl]-2-oxo-5-oxazolidinyl]methyl]acetamide], the minimal inhibitory concentration (MIC) was under 0.125 µg/mL in the assay on S. pneumoniae UC ® 9912, 0.5 µg/mL (≈ 1.28 µM) with S. Aureus UC ® 9213 and 2 µg/mL (≈ 5.14 µM) in the assay with HI 30063.

As for `CC(=O)NC[C@H]1CN(c2ccc(-c3nnc(CC[S+](C)[O-])s3)c(F)c2)C(=O)O1` (stereo partly drawn) [Example 24, (S)-N-[[3-[3-Fluoro-4-[5-[2-(methylsulfinyl)ethyl]-1,3,4-thiadiazol-2-yl]phenyl]-2-oxo-5-oxazolidinyl]methyl]acetamide], the MIC with S. pneumoniae UC ® 9912 worked out at 0.25 µg/mL (≈ 0.586 µM); with S. Aureus UC ® 9213, 4 µg/mL (≈ 9.38 µM); with HI 30063, 4 µg/mL (≈ 9.38 µM).

Turning to `CC(=O)NC[C@H]1CN(c2ccc(-c3nnc(CCO)s3)c(F)c2)C(=O)O1` [Example 26, (S)-N-[[3-[3-Fluoro-4-[5-(2-hydroxyethyl)-1,3,4-thiadiazol-2-yl]phenyl]-2-oxo-5-oxazolidinyl]methyl]acetamide], the values for the minimal inhibitory concentration (MIC) with S. pneumoniae UC ® 9912, in the assay on S. Aureus UC ® 9213 and with HI 30063 were under 0.125 µg/mL, 2 µg/mL (≈ 5.26 µM) and 2 µg/mL (≈ 5.26 µM), respectively.

As for `CC(=O)NC[C@H]1CN(c2ccc(-c3n[nH]c(=O)s3)c(F)c2)C(=O)O1` [Example 29, (S)-N-[[3-[4-(4,5-Dihydro-5-oxo-1,3,4-thiadiazol-2-yl)-3-fluorophenyl]-2-oxo-5-oxazolidinyl]methyl]acetamide], the MIC stood at 0.25 µg/mL (≈ 0.71 µM) in the assay with S. pneumoniae UC ® 9912, 1 µg/mL (≈ 2.84 µM) against S. Aureus UC ® 9213 and 4 µg/mL (≈ 11.4 µM) in the assay with HI 30063.

On to `CSc1nnc(-c2ccc(N3C[C@H](CNC(C)=O)OC3=O)cc2F)s1` [Example 31, (S)-N-[[3-[3-Fluoro-4-[5-(methylthio)-1,3,4-thiadiazol-2-yl]phenyl]-2-oxo-5-oxazolidinyl]methyl]acetamide], for which the MIC against S. pneumoniae UC ® 9912 was under 0.125 µg/mL; against S. Aureus UC ® 9213, 0.5 µg/mL (≈ 1.31 µM); with HI 30063, 4 µg/mL (≈ 10.5 µM).

Consider `CCC(=O)NC[C@H]1CN(c2ccc(-c3nnc(C)s3)c(F)c2)C(=O)O1` [Example 32, (S)-N-[[3-[3-Fluoro-4-(5-methyl-1,3,4-thiadiazol-2-yl)phenyl]-2-oxo-5-oxazolidinyl]methyl]propanamide], for which the results for the minimal inhibitory concentration (MIC) in the assay on S. pneumoniae UC ® 9912, in the assay on S. Aureus UC ® 9213 and against HI 30063 were under 0.125 µg/mL, 1 µg/mL (≈ 2.74 µM) and 4 µg/mL (≈ 11 µM), respectively.

As for `CC(=O)NC[C@H]1CN(c2ccc(-c3nnc([S+](C)[O-])s3)c(F)c2)C(=O)O1` (stereo partly drawn) [Example 47, (5S)-N-[[3-[3-Fluoro-4-[5-(methylsulfinyl)-1,3,4-thiadiazol-2-yl]phenyl]-2-oxo-5-oxazolidinyl]methyl]acetamide], the MIC in the assay on S. pneumoniae UC ® 9912 turned out to be 0.25 µg/mL (≈ 0.627 µM); against S. Aureus UC ® 9213, 2 µg/mL (≈ 5.02 µM); against HI 30063 it was 4 µg/mL (≈ 10 µM).

`CC(=O)NC[C@H]1CN(c2ccc(-c3nnc(CCCO)s3)c(F)c2)C(=O)O1` [Example 50, (S)-N-[[3-[3-Fluoro-4-[5-(3-hydroxypropyl)-1,3,4-thiadiazol-2-yl]phenyl]-2-oxo-5-oxazolidinyl]methyl]acetamide]: the results for the MIC with S. pneumoniae UC ® 9912, against S. Aureus UC ® 9213 and in the assay with HI 30063 were 0.25 µg/mL (≈ 0.634 µM), 2 µg/mL (≈ 5.07 µM) and 4 µg/mL (≈ 10.1 µM), respectively.

`CC(=O)NC[C@H]1CN(c2ccc(-c3nnc([C@H](C)O)s3)c(F)c2)C(=O)O1` [Example 51, [S-(R*,R*)]-N-[[3-[3-Fluoro-4-[5-(1-hydroxyethyl)-1,3,4-thiadiazol-2-yl]phenyl]-2-oxo-5-oxazolidinyl]methyl]acetamide]: the MIC in the assay on S. pneumoniae UC ® 9912 was 0.25 µg/mL (≈ 0.657 µM); in the assay with S. Aureus UC ® 9213, 2 µg/mL (≈ 5.26 µM); in the assay with HI 30063, 4 µg/mL (≈ 10.5 µM).

On to `CC(=O)NC[C@H]1CN(c2ccc(-c3nnc([C@@H](C)O)s3)c(F)c2)C(=O)O1` [Example 52, [S-(R*,S*)]-N-[[3-[3-Fluoro-4-[5-(1-hydroxyethyl)-1,3,4-thiadiazol-2-yl]phenyl]-2-oxo-5-oxazolidinyl]methyl]acetamide], for which the values for the MIC against S. pneumoniae UC ® 9912, against S. Aureus UC ® 9213 and against HI 30063 were 0.25 µg/mL (≈ 0.657 µM), 2 µg/mL (≈ 5.26 µM) and 4 µg/mL (≈ 10.5 µM), respectively.

Regarding `CC(=O)NC[C@H]1CN(c2ccc(-c3nnc(CC[N+](=O)[O-])s3)c(F)c2)C(=O)O1` [Example 53, (S)-N-[[3-[3-Fluoro-4-[5-(2-nitroethyl)-1,3,4-thiadiazol-2-yl]phenyl]-2-oxo-5-oxazolidinyl]methyl]acetamide], the values for the MIC with S. pneumoniae UC ® 9912, in the assay on S. Aureus UC ® 9213 and in the assay on HI 30063 were 0.25 µg/mL (≈ 0.611 µM), 1 µg/mL (≈ 2.44 µM) and 4 µg/mL (≈ 9.77 µM), respectively.

For the molecule `CC(=O)NC[C@H]1CN(c2ccc(-c3nnc(CCC[N+](=O)[O-])s3)c(F)c2)C(=O)O1` [Example 54, (S)-N-[[3-[3-Fluoro-4-[5-(3-nitropropyl)-1,3,4-thiadiazol-2-yl]phenyl]-2-oxo-5-oxazolidinyl]methyl]acetamide], the MIC against S. pneumoniae UC ® 9912 was found to be 0.25 µg/mL (≈ 0.59 µM); in the assay with S. Aureus UC ® 9213 it was 2 µg/mL (≈ 4.72 µM); with HI 30063 it was 4 µg/mL (≈ 9.45 µM).

For the molecule `CC(=O)NC[C@H]1CN(c2ccc(-c3nnc([C@H](C)N)s3)c(F)c2)C(=O)O1` [Example 55, [S-(R*,R*)]-N-[[3-[4-[5-(1-Aminoethyl)-1,3,4-thiadiazol-2-yl]-3-fluorophenyl]-2-oxo-5-oxazolidinyl]methyl]acetamide], the results for the MIC against S. pneumoniae UC ® 9912, with S. Aureus UC ® 9213 and against HI 30063 were under 0.125 µg/mL, 8 µg/mL (≈ 21.1 µM) and 4 µg/mL (≈ 10.5 µM), respectively.

For the molecule `CC(=O)NC[C@H]1CN(c2ccc(-c3nnc([C@@H](C)N)s3)c(F)c2)C(=O)O1` [Example 56, [S-(R*,S*)]-N-[[3-[4-[5-(1-Aminoethyl)-1,3,4-thiadiazol-2-yl]-3-fluorophenyl]-2-oxo-5-oxazolidinyl]methyl]acetamide], the MIC against S. pneumoniae UC ® 9912 was under 0.125 µg/mL; in the assay with S. Aureus UC ® 9213, 4 µg/mL (≈ 10.5 µM); with HI 30063 it was 4 µg/mL (≈ 10.5 µM).

Regarding `CC(=O)NC[C@H]1CN(c2ccc(-c3nnc(CCCC#N)s3)c(F)c2)C(=O)O1` [Example 61, (S)-N-[[3-[4-[5-(3-Cyanopropyl)-1,3,4-thiadiazol-2-yl]-3-fluorophenyl]-2-oxo-5-oxazolidinyl]methyl]acetamide], the results for the MIC in the assay with S. pneumoniae UC ® 9912, in the assay with S. Aureus UC ® 9213 and in the assay on HI 30063 were under 0.125 µg/mL, 1 µg/mL (≈ 2.48 µM) and 4 µg/mL (≈ 9.91 µM), respectively.
